Measured values published in patent US7169574B2, “Fluorescence detection of proteases or peptidases” (Institut National de la Sante et de la Recherche Medicale …, priority 2000, dated 2007).
Several values for one entry are separate records, joined by “and”; a condition that tells them apart may be missing. Equal entries are not always repeated. Numbered stars: 1 amine (or outer) side, 2 acyl side, 3 side chain; on linkers, the order of the positions; unused ones are H or OH. Square brackets hold non-standard residues; d marks the D form. Primed or numbered codes have the meaning given here. Ends that are not written are not given here. PyA″ = pyrenylalanine, O=C([C@H](Cc1ccc2ccc3cccc4ccc1c2c34)N[*:1])[*:2]; Phe(4-NO2) = N[C@@H](Cc1ccc([N+](=O)[O-])cc1)C(=O)O

Assays:
ECE [1] = target: T1, ECE (Homo sapiens, UniProt P42892); assay: ECE inhibition test, fluorescence reading on 96-well microplate (Examples 3 and 4); type: biochemical; conditions: for fluorescence intensity measured for each well: excitation 340 nm, emission 400 nm, gain 85, low value = strong inhibition, blank 67/68, control 1081/1094
T1 construct: made in house; host or cells: Cos-1 cells or CHO cells
T1 sequence (P42892 1-754 isoform P42892-3): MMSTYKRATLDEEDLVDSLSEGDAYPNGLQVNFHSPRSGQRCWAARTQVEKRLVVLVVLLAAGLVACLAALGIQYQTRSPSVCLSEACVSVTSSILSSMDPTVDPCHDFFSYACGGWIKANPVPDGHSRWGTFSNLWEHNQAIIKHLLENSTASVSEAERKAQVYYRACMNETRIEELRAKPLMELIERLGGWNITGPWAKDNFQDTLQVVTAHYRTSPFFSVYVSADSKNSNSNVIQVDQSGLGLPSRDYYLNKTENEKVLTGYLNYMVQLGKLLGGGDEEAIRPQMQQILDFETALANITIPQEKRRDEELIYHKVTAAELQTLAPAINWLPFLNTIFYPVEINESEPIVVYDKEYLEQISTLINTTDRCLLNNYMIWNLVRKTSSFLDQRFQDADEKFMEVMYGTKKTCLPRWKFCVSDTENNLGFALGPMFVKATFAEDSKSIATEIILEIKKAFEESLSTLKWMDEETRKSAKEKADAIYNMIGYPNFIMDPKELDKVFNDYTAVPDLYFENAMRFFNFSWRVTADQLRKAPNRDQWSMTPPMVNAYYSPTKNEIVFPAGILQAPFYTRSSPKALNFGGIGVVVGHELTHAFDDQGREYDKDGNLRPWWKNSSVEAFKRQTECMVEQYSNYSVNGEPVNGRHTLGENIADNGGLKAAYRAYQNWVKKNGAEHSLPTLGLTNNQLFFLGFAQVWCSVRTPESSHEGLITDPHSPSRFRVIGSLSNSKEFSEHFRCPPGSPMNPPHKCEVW
Protocol: 100 μl of 50 mM Tris-maleate buffer, pH 6.5, 20 μM or 5 μM of fluorescent peptide 1s or 2s and 10 μl of a solution of ECE diluted as a function of its purity and such that the cleavage of the fluorescent substrate remains less than 5%. […] The reaction is stopped in various ways, for example heating to 90° C., abrupt cooling to 4° C., adding an organic solvent such as dioxane to 20% of the final volume, and then the reading is performed using a fluorimeter (λex=340 nm; λem=400 nm) optionally coupled to the automated analysis system. […] The controls are performed in the presence of all the reagents but without ECE or with ECE inactivated beforehand by heating at 90° C. for 5 minutes.
The inhibitory behavior of several compounds was assessed by reproducing the protocol described in Example 2.
The specific conditions selected for the assays appear below:
Preincubation is carried out for 10 minutes at 37° C. The ECE substrate is then added at an amount of 10 μM. The entire mixture is incubated for between 20 minutes and 1 hour at 37C and the reaction is then stopped either by cooling or by adding dioxane (20 μl).
The reading on cytofluor is performed at 4° C. with the following specificities: excitation 340 nm, emission 400 nm and with a gain of 85.
The assays are performed on a 96-well microplate.
The compounds were tested at two concentrations.

[2] = Stability of the fluorescence of the metabolites formed by ECE; type: physicochemical
Source text: The measurement of this intensity, related to a standard curve established with mixtures of the substrate and of the fluorescent metabolite formed, therefore makes it possible either to evaluate the inhibitory capacity as percentage inhibition at a set given concentration of the product P, or to precisely determine its IC50 and then its KI using the Km of the substrate and several concentrations of the product P. The extreme sensitivity of the assay makes it possible to operate in very small volumes (100 μl) with concentrations of the order of 20 μM of the substrate 1s (that is to say 2 nmole corresponding to 4.43 μg per assay) or 5 μM of the substrate 2s. The test can therefore be very easily used in 96 wells plates or more, making it possible to automate it with automatic determination of the KI values when the reading fluorimeter is connected to a computer having suitable commercial software.

ECE [3] = target: T1, ECE; assay: HPLC analysis of products formed on incubation with ECE; type: biochemical; conditions: single cleavage at the PyA-pNF peptide bond
Protocol: With regard to the products formed, the analysis thereof was carried out, in order to verify the substrate selectivity, by HPLC on a nucleosil C18 column, 7 μm/300 Å (4.6×70 mm), using a buffer B (0.038% of TFA in CH3CN/H2O, 9/1 by vol.) and a gradient of 40–47% of buffer B in 10 minutes (flow rate 1 ml/min).

[4] = target: T2, endothelin-converting enzyme (ECE) (Homo sapiens, UniProt P42892); assay: Fluorimetric ECE activity assay with fluorescent peptide substrates (96-well plates); type: biochemical; conditions: 50 mM Tris-maleate buffer, pH 6.5; calculated using the ENZFITTER program; read-out: Km (affinity constant of the enzyme for a substrate)
T2 construct: made in house; host or cells: Cos-1 cells or CHO cells
T2 sequence (P42892 1-754 isoform P42892-3): T1 sequence (P42892 1-754 isoform P42892-3)
Protocol: Various preparations containing ECE can be used, such as, for example, recombinant human ECE-1c expressed in Cos-1 cells (Shimada et al., J. Biol. Chem. (1994) 269, 18275–18278) or CHO cells (Xu et al. Cell (1994) 78, 473–485).
In all cases, the presence of the enzyme is tested by Western blotting using an antibody and its concentration is evaluated by comparison with the purified enzyme.
The ECE activity is determined in 96-well plates, generally under the following conditions:
100 μl of 50 mM Tris-maleate buffer, pH 6.5, 20 μM or 5 μM of fluorescent peptide 1s or 2s and 10 μl of a solution of ECE diluted as a function of its purity and such that the cleavage of the fluorescent substrate remains less than 5%. […] The reaction is stopped in various ways, for example heating to 90° C., abrupt cooling to 4° C., adding an organic solvent such as dioxane to 20% of the final volume, and then the reading is performed using a fluorimeter (λex=340 nm; λem=400 nm) optionally coupled to the automated analysis system. The use of a network fluorimeter considerably further increases the sensitivity of the assay by reading the fluorescence at 377 nm. […]
The KI values for the inhibitors can be determined automatically using the degradation percentages at various concentrations and comparison with a standard range. […]

Compound | fluorescence intensity measured for each well (ECE [1]; compound at 5 × 10^−6 M) | fluorescence intensity measured for each well (ECE [1]; compound at 10^−6 M) | fluorescence of the metabolite over time [2] | further results
C[C@H](CS)C(=O)N1CCC[C@H]1C(=O)O [C, captopril] | 1128 and 1121 | 1086 and 1089 |  | 
NCCCC[C@H](N[C@@H](CCc1ccccc1)C(=O)O)C(=O)N1CCC[C@H]1C(=O)O [L, lysinopril] | 1095 and 1119 | 1117 and 1093 |  | 
CC(C)C[C@H](NP(=O)(O)O[C@@H]1O[C@@H](C)[C@H](O)[C@@H](O)[C@H]1O)C(=O)N[C@@H](Cc1c[nH]c2ccccc12)C(=O)O [P, phosphoramidon] | 140 and 133 | 455 and 459 |  | inhibitory behavior on ECE (ECE [1]; Table II, 10^−6 M and 5 × 10^−6 M): entirely verified
O=C(O)CC(=O)NC(CS)Cc1ccccc1 (centres unmarked) [R, retrothiorphan] | 1043 and 1077 | 1124 and 1106 |  | 
O=C(O)CNC(=O)C(CS)Cc1ccccc1 (centres unmarked) [T, thiorphan] | 1109 and 1121 | 1124 and 1127 |  | 
Ac-Arg-Pro-Lys-Gln-Glu-PyA [peptide 2m] |  |  | not modified over several hours | 
Ac-Ile-Ile-PyA (Ac-Ile-Ile-[PyA″]) [peptide 1m, fluorescent metabolite of 1s formed by ECE] |  |  | not modified over several hours | 
Ac-Ile-Ile-PyA-pNF-Asn-Thr-Pro-Glu-His-Val-Val-Pro-Tyr-Gly-Leu-Gly-Ser-COOH (Ac-II[PyA″][Phe(4-NO2)]NTPEHVVPYGLGS-OH; SMILES CC[C@H](C)[C@H](NC(C)=O)C(=O)N[C@H](C(=O)N[C@@H](Cc1ccc2ccc3cccc4ccc1c2c34)C(=O)N[C@@H](Cc1ccc([N+](=O)[O-])cc1)C(=O)N[C@@H](CC(N)=O)C(=O)N[C@H](C(=O)N1CCC[C@H]1C(=O)N[C@@H](CCC(=O)O)C(=O)N[C@@H](Cc1c[nH]cn1)C(=O)N[C@H](C(=O)N[C@H](C(=O)N1CCC[C@H]1C(=O)N[C@@H](Cc1ccc(O)cc1)C(=O)NCC(=O)N[C@@H](CC(C)C)C(=O)NCC(=O)N[C@@H](CO)C(=O)O)C(C)C)C(C)C)[C@@H](C)O)[C@@H](C)CC) [peptide 1s, fluorogenic ECE substrate] |  |  |  | metabolites produced when incubated with ECE (ECE [3]): only two metabolites; Km [4]: 22.1 ± 0.9 µM
Ac-Ser-Gly-PyA-Lys-Ala (Ac-SG[PyA″]KA) [peptide 3m, fluorescent metabolite of 3s formed by ECE] |  |  | not modified over several hours | 
Ac-Ser-Gly-PyA-Lys-Ala-Phe-Ala-pNF-Gly-Lys NH2 (Ac-SG[PyA″]KAFA[Phe(4-NO2)]GK-NH2; SMILES CC(=O)N[C@@H](CO)C(=O)NCC(=O)N[C@@H](Cc1ccc2ccc3cccc4ccc1c2c34)C(=O)N[C@@H](CCCCN)C(=O)N[C@@H](C)C(=O)N[C@@H](Cc1ccccc1)C(=O)N[C@@H](C)C(=O)N[C@@H](Cc1ccc([N+](=O)[O-])cc1)C(=O)NCC(=O)N[C@@H](CCCCN)C(N)=O) [peptide 3s, fluorogenic ECE substrate] |  |  |  | metabolites produced when incubated with ECE (ECE [3]): only two metabolites
